Like-named read-outs stand apart in the source and are kept apart here. Values belong to the compound of their own block, whether it stands above or below them.
Experiments:
CYP3A4 [1] = target: CYP3A4 (Homo sapiens, UniProt P08684); assay: in vitro; conditions: upcyte hepatocytes, probe midazolam (5 μmol/L), percentage inhibition, CYP3A4, 1′OH-MID +1′OH-MID-G, 1 mmol/L ABT, Lab 2
CYP1A2 [2] = target: T1, CYP1A2 (Homo sapiens, UniProt P05177); assay: CYP1A2 inhibition in upcyte hepatocytes over 24 h; type: in vitro ADME; conditions: probe phenacetin (5 μmol/L), percentage inhibition, CYP1A2, APAP, 1 mmol/L ABT, Lab 2
T1 sequence (P05177 1-516): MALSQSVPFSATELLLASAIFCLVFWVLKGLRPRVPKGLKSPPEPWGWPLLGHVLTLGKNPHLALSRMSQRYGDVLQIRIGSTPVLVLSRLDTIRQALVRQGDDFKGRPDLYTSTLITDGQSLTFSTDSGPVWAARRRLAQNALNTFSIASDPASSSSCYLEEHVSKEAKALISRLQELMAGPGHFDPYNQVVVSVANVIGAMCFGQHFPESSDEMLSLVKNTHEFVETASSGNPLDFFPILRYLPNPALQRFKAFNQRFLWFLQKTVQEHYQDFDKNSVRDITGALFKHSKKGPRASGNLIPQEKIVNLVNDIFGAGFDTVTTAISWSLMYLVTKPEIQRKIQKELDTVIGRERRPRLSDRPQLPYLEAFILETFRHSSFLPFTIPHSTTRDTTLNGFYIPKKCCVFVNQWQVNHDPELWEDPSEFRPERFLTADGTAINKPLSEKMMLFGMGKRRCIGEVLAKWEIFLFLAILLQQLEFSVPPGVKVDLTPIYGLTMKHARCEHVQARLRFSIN

CYP2B6 [3] = target: T2, CYP2B6 (Homo sapiens, UniProt P20813); assay: in vitro; conditions: hepatocytes, percentage inhibition, CYP2B6, OH-Bup, 1 mmol/L ABT, Lab 2
T2 sequence (P20813 1-491): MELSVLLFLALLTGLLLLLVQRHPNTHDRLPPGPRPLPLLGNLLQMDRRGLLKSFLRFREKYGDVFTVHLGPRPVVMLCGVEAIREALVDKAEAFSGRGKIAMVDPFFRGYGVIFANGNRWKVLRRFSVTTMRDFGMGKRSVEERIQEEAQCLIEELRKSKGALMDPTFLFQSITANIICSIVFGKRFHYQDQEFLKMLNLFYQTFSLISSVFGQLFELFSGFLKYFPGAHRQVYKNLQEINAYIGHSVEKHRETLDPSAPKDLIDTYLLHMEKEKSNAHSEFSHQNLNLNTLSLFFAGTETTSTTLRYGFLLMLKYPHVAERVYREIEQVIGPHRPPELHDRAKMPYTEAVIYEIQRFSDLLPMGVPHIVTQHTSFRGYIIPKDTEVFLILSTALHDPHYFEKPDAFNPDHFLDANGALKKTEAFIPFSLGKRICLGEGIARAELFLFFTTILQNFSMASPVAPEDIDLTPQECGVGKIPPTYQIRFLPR

CYP2C9 = CYP2C9 (Homo sapiens, UniProt P11712); assay: CYP2C9 inhibition in upcyte hepatocytes over 24 h; type: in vitro ADME; conditions: probe tolbutamide (5 μmol/L), percentage inhibition, CYP2C9, OH-Tolb, 1 mmol/L ABT, Lab 2
Chain of CYP2C9 (P11712 whole entry): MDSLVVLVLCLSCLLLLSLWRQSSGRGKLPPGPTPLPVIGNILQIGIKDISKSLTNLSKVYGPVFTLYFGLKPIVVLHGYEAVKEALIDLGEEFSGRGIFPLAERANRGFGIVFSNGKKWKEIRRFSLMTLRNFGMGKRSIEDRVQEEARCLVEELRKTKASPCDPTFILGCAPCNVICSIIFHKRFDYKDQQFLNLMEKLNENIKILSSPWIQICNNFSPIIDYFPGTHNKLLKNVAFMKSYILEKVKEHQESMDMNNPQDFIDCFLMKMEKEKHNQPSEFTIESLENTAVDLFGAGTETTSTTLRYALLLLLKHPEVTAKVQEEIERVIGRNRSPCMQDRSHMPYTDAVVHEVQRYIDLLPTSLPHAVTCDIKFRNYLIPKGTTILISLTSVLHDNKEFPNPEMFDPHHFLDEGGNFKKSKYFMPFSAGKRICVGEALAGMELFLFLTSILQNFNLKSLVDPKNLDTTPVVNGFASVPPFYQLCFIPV

CYP3A4 [4] = conditions: for CYP3A4 Indmax: mean from two experiments; for CYP3A4 % Rif: relative to positive control rifampicin, equation 2
CYP2B6 [5] = conditions: for CYP2B6 Indmax: mean from two experiments; for CYP2B6 % PB: relative to positive control phenobarbital, equation 2
CYP1A2 [6] = assay: CYP1A2 preinduction by omeprazole in upcyte hepatocytes; conditions: daily 100 μmol/L omeprazole for 3 days
CYP3A4 [7] = conditions: in vivo induction value used for the RIS calibration; cited from earlier work

Chain of CYP3A4 (Homo sapiens, UniProt P08684) (P08684 whole entry): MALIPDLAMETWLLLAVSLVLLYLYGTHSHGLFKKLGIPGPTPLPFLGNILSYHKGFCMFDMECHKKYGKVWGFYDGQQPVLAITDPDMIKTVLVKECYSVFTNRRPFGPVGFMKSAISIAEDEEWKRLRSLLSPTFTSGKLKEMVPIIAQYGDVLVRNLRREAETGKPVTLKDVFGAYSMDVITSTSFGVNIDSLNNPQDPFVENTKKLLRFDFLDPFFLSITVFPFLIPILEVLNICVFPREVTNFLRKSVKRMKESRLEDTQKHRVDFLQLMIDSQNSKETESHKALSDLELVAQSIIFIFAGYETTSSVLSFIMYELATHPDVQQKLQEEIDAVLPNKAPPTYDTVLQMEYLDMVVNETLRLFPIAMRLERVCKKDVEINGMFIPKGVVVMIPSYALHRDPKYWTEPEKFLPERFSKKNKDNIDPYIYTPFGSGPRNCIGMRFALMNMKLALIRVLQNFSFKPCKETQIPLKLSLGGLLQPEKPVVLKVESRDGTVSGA

inhibition at 1 mmol/L (CYP3A4 [1]; Donor 151-03, 0–6 h): 99% | inhibition at 24 h, 1 mmol/L (CYP3A4 [1]; Donor 151-03, 24 h): 97% | inhibition at 1 mmol/L (CYP3A4 [1]; Donor 422A-03, 0–6 h): 98% | inhibition at 24 h, 1 mmol/L (CYP3A4 [1]; Donor 422A-03, 24 h): 98% | inhibition at 1 mmol/L (CYP3A4 [1]; Donor 653-03, 0–6 h): 98% | inhibition at 24 h, 1 mmol/L (CYP3A4 [1]; Donor 653-03, 24 h): 98% | inhibition at 1 mmol/L (CYP1A2 [2]; Donor 151-03, 0–6 h): 100% | inhibition at 24 h, 1 mmol/L (CYP1A2 [2]; Donor 151-03, 24 h): 100% | inhibition at 1 mmol/L (CYP1A2 [2]; Donor 422A-03, 0–6 h): 100% | inhibition at 24 h, 1 mmol/L (CYP1A2 [2]; Donor 422A-03, 24 h): 98% | inhibition at 1 mmol/L (CYP1A2 [2]; Donor 653-03, 0–6 h): 95% | inhibition at 24 h, 1 mmol/L (CYP1A2 [2]; Donor 653-03, 24 h): 96% | inhibition at 1 mmol/L (CYP2B6 [3]; Donor 151-03, 0–6 h): 85% | inhibition at 24 h, 1 mmol/L (CYP2B6 [3]; Donor 151-03, 24 h): 94% | inhibition at 1 mmol/L (CYP2B6 [3]; Donor 422A-03, 0–6 h): 90% | inhibition at 24 h, 1 mmol/L (CYP2B6 [3]; Donor 422A-03, 24 h): 94% | inhibition at 1 mmol/L (CYP2B6 [3]; Donor 653-03, 0–6 h): 94% | inhibition at 24 h, 1 mmol/L (CYP2B6 [3]; Donor 653-03, 24 h): 97% | inhibition at 1 mmol/L (CYP2C9; Donor 151-03, 0–6 h): 100% | inhibition at 24 h, 1 mmol/L (CYP2C9; Donor 151-03, 24 h): 98% | inhibition at 1 mmol/L (CYP2C9; Donor 422A-03, 0–6 h): 100% | inhibition at 24 h, 1 mmol/L (CYP2C9; Donor 422A-03, 24 h): 100% | inhibition at 1 mmol/L (CYP2C9; Donor 653-03, 0–6 h): 95% | inhibition at 24 h, 1 mmol/L (CYP2C9; Donor 653-03, 24 h): 99%
SMILES: Nn1nnc2ccccc21 [ABT, 1-aminobenzotriazole]

SMILES: COc1ccc2[nH]c([S+]([O-])Cc3ncc(C)c(OC)c3C)nc2c1 (stereo not shown) [Omeprazole, omeprazole]
CYP3A4 Indmax (CYP3A4 [4]; upcyte Donor 10-03): 2.3 fold | CYP3A4 % Rif (CYP3A4 [4]; upcyte Donor 10-03): 4% | CYP3A4 Indmax (CYP3A4 [4]; upcyte Donor 151-03): 3.1 fold | CYP3A4 % Rif (CYP3A4 [4]; upcyte Donor 151-03): 34% | CYP3A4 Ind50 (CYP3A4 [4]; upcyte Donor 653-03, column headed Ind50 in Table 5): 5 | CYP3A4 Indmax (CYP3A4 [4]; upcyte Donor 653-03): 1.5 fold | CYP2B6 Indmax (CYP2B6 [5]; upcyte Donor 10-03): 2.0 fold | CYP2B6 % PB (CYP2B6 [5]; upcyte Donor 10-03): 31% | CYP2B6 Indmax (CYP2B6 [5]; upcyte Donor 151-03): No induction | CYP2B6 % PB (CYP2B6 [5]; upcyte Donor 151-03): No induction | CYP2B6 Indmax (CYP2B6 [5]; upcyte Donor 653-03): 2.2 fold | CYP2B6 % PB (CYP2B6 [5]; upcyte Donor 653-03): 56% | induced CYP1A2 activity (CYP1A2 [6]; Donor 10-03): 57.1 ± 17.1 pmol/min/mg protein | induced CYP1A2 activity (CYP1A2 [6]; Donor 151-03): 83.8 ± 21.7 pmol/min/mg protein | induced CYP1A2 activity (CYP1A2 [6]; Donor 422A-03): 205.0 ± 44.9 pmol/min/mg protein | % Decrease in midazolam AUC (CYP3A4 [7]): 0%

From publication PMC4618636 (Pharmacology Research & Perspectives, 2015)
